According to PubChem BioAssay AID248 (DTP/NCI, 2004):
“And” between values parts separate entries of the source, which are not always exact repeats. Equal entries are not always repeated. Toxic doses and inconclusive results are not listed. Rule as the data show it: active = T/C of 150% or more; inactive = T/C below 125%.

System: L1210 leukemia ip in BDF1 mice, survival T/C
Test: NCI In Vivo Anticancer Drug Screen. Data for tumor model L1210 Leukemia (intraperitoneal) in B6D2F1 (BDF1) mice
Conditions: endpoint: mean survival time, higher = longer survival
Method in brief: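 Read-out is survival time, reported as the treated-group measurement over the vehicle-control measurement.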

[1] = dose: 100.0 mg/kg/injection, schedule: Q04DX003 (ip), vehicle: Klucel (hydroxypropylcellulose) (HPC)
[2] = dose: 200.0 mg/kg/injection, schedule: Q04DX003 (ip), vehicle: Klucel (hydroxypropylcellulose) (HPC)
[3] = dose: 400.0 mg/kg/injection, schedule: Q04DX003 (ip), vehicle: Klucel (hydroxypropylcellulose) (HPC)
[4] = dose: 100.0 mg/kg/injection, schedule: Q04DX002 (ip), vehicle: Klucel (hydroxypropylcellulose) (HPC)
[5] = dose: 200.0 mg/kg/injection, schedule: Q04DX002 (ip), vehicle: Klucel (hydroxypropylcellulose) (HPC)
[6] = dose: 400.0 mg/kg/injection, schedule: Q04DX002 (ip), vehicle: Klucel (hydroxypropylcellulose) (HPC)
[7] = dose: 100.0 mg/kg/injection, schedule: Q01DX001 (ip), vehicle: Klucel (hydroxypropylcellulose) (HPC)
[8] = dose: 200.0 mg/kg/injection, schedule: Q01DX001 (ip), vehicle: Klucel (hydroxypropylcellulose) (HPC)
[9] = dose: 400.0 mg/kg/injection, schedule: Q01DX001 (ip), vehicle: Klucel (hydroxypropylcellulose) (HPC)
[10] = dose: 100.0 mg/kg/injection, schedule: Q01DX009 (ip), vehicle: saline
[11] = dose: 100.0 mg/kg/injection, schedule: Q04DX003 (ip), vehicle: saline
[12] = dose: 200.0 mg/kg/injection, schedule: Q01DX009 (ip), vehicle: saline
[13] = dose: 200.0 mg/kg/injection, schedule: Q04DX003 (ip), vehicle: saline
[14] = dose: 400.0 mg/kg/injection, schedule: Q01DX009 (ip), vehicle: saline
[15] = dose: 400.0 mg/kg/injection, schedule: Q04DX003 (ip), vehicle: saline
[16] = dose: 100.0 mg/kg/injection, schedule: Q04DX003 (ip), vehicle: saline with Tween-80
[17] = dose: 200.0 mg/kg/injection, schedule: Q04DX003 (ip), vehicle: saline with Tween-80
[18] = dose: 400.0 mg/kg/injection, schedule: Q04DX003 (ip), vehicle: saline with Tween-80
[19] = dose: 200.0 mg/kg/injection, schedule: Q01DX009 (ip), vehicle: saline with Tween-80
[20] = dose: 400.0 mg/kg/injection, schedule: Q01DX009 (ip), vehicle: saline with Tween-80
[21] = dose: 25.0 mg/kg/injection, schedule: Q04DX003 (ip), vehicle: saline
[22] = dose: 50.0 mg/kg/injection, schedule: Q04DX003 (ip), vehicle: saline

Measured: T/C

COc1ccc(OC)c(NC(=O)NCCCl)c1
inactive: [1] 101 % of control | [2] 98 % of control | [3] 87 % of control

N/N=C/c1cc2ccccc2c2ccccc12
inactive: [4] 97 % of control | [5] 91 % of control | [6] 87 % of control

O=C(CNC(=O)c1ccc(Cl)cc1)NO
inactive: [7] 96 % of control | [8] 102 % of control | [9] 96 % of control

O=C1OC(/C=C/c2ccccc2)=NC/1=C\c1cccc([N+](=O)[O-])c1
inactive: dose: 25.0 mg/kg/injection, schedule: Q04DX002 (ip), vehicle: Klucel (hydroxypropylcellulose) (HPC) 93 % of control | dose: 50.0 mg/kg/injection, schedule: Q04DX002 (ip), vehicle: Klucel (hydroxypropylcellulose) (HPC) 104 % of control | [4] 89 % of control

SC(S)(Cc1ccccc1)Cc1ccccc1
inactive: dose: 100.0 mg/kg/injection, schedule: Q04DX002 (ip), vehicle: saline 100 % of control | dose: 200.0 mg/kg/injection, schedule: Q04DX002 (ip), vehicle: saline 100 % of control | dose: 400.0 mg/kg/injection, schedule: Q04DX002 (ip), vehicle: saline 94 % of control

CCCCCCCCCCCCc1ccc(CS)cc1
inactive: [10] 98 % of control | [11] 92 % of control | [12] 101 % of control | [13] 91 % of control | [14] 101 % of control | [15] 93 % of control

CC1=CC(C)(C)NC(=S)N1CCO
inactive: dose: 74.0 mg/kg/injection, schedule: Q01DX Z (ip), vehicle: methylcellulose (MC) 91 % of control | [4] 104 % of control | [5] 107 % of control

CC(CS(=O)(=O)O)N1CCN(CCO)CC1 (stereo unspecified)
inactive: [10] 101 % of control | [11] 108 % of control | [12] 96 % of control | [13] 103 % of control | [14] 96 % of control | [15] 94 % of control

O=C1N(c2ccccc2)C(c2ccccc2)C1(c1ccccc1)c1ccccc1 (stereo unspecified)
inactive: dose: 100.0 mg/kg/injection, schedule: Q01DX001 (ip), vehicle: gum acacia 92 % of control | dose: 200.0 mg/kg/injection, schedule: Q01DX001 (ip), vehicle: gum acacia 86 % of control | dose: 400.0 mg/kg/injection, schedule: Q01DX001 (ip), vehicle: gum acacia 94 % of control

N=C1SCC(=O)N1CCN1C(=N)SCC1=O
inactive: dose: 100.0 mg/kg/injection, schedule: Q01DX001 (ip), vehicle: carboxymethylcellulose (CMC) 101 % of control | dose: 200.0 mg/kg/injection, schedule: Q01DX001 (ip), vehicle: carboxymethylcellulose (CMC) 90 % of control | dose: 400.0 mg/kg/injection, schedule: Q01DX001 (ip), vehicle: carboxymethylcellulose (CMC) 97 % of control

N#CCCSCCC#N
inactive: dose: 7.5 mg/kg/injection, schedule: Q01DX009 (ip), vehicle: saline 101 % of control | [16] 105 % of control | [11] 115 % of control | dose: 150.0 mg/kg/injection, schedule: Q01DX009 (ip), vehicle: saline 93 % of control | [17] 100 % of control | [13] 101 % of control | dose: 300.0 mg/kg/injection, schedule: Q01DX009 (ip), vehicle: saline 98 % of control | [18] 108 % of control | [15] 100 % of control

Cc1nc(N)[nH]c(=O)c1NC(=O)CBr
inactive: dose: 50.0 mg/kg/injection, schedule: Q01DX001 (ip), vehicle: Klucel (hydroxypropylcellulose) (HPC) 100 % of control | [7] 104 % of control

O=C1CC2(CCCCC2)C(=O)N1
inactive: dose: 5.0 mg/kg/injection, schedule: Q04DX003 (ip), vehicle: saline with Tween-80 102 % of control | dose: 10.0 mg/kg/injection, schedule: Q04DX003 (ip), vehicle: saline with Tween-80 102 % of control | dose: 20.0 mg/kg/injection, schedule: Q04DX003 (ip), vehicle: saline with Tween-80 102 % of control

CCc1nc(N[N+](=O)[O-])nc(-c2ccccc2)c1-c1ccccc1O
inactive: [4] 107 % of control | [5] 94 % of control | [6] 107 % of control

CCc1c(O)c2ccc3ccccc3c2oc1=O
inactive: [11] 97 % of control | [13] 94 % of control | [15] 94 % of control

C=C1CC[N+]2(C)CCCC12 (stereo unspecified)
inactive: dose: 12.5 mg/kg/injection, schedule: Q01DX009 (ip), vehicle: saline 100 % of control | dose: 25.0 mg/kg/injection, schedule: Q01DX009 (ip), vehicle: saline 113 % of control | dose: 50.0 mg/kg/injection, schedule: Q01DX009 (ip), vehicle: saline 95 % of control and 91 % of control

Cc1cc(C)c(OS(=O)(=O)c2ccc([N+](=O)[O-])cc2)c(C)c1
inactive: [19] 87 % of control | [20] 89 % of control

Cc1ncc(CN2CSC(CCO)C2C)c(N)n1 (stereo unspecified)
inactive: [7] 95 % of control | [8] 93 % of control | [9] 93 % of control

C/C(=C/C1CC(=O)OC1=O)CC(C)(C)C (stereo unspecified)
inactive: dose: 222.0 mg/kg/injection, schedule: Q01DX Z (ip), vehicle: methylcellulose (MC) 108 % of control | dose: 333.0 mg/kg/injection, schedule: Q01DX Z (ip), vehicle: methylcellulose (MC) 92 % of control

CC(C)(C)C1CCC(NN)CC1 (stereo unspecified)
inactive: dose: 0.78 mg/kg/injection, schedule: Q01DX009 (ip), vehicle: saline 101 % of control | dose: 1.56 mg/kg/injection, schedule: Q01DX009 (ip), vehicle: saline 100 % of control | dose: 3.12 mg/kg/injection, schedule: Q01DX009 (ip), vehicle: saline 101 % of control | dose: 6.25 mg/kg/injection, schedule: Q01DX009 (ip), vehicle: saline 95 % of control | dose: 12.5 mg/kg/injection, schedule: Q04DX003 (ip), vehicle: saline 98 % of control | [21] 98 % of control | dose: 50.0 mg/kg/injection, schedule: Q01DX001 (ip), vehicle: saline 92 % of control

CCCCCCCCP(=O)(CCCCCCCC)C(O)C(Cl)(Cl)Cl (stereo unspecified)
inactive: [16] 91 % of control | [17] 96 % of control | [18] 92 % of control

FC(F)(F)c1nc(Cl)c2cn[nH]c2n1
inactive: dose: 44.0 mg/kg/injection, schedule: Q01DX Z (ip), vehicle: methylcellulose (MC) 104 % of control | dose: 66.0 mg/kg/injection, schedule: Q01DX Z (ip), vehicle: methylcellulose (MC) 103 % of control | dose: 100.0 mg/kg/injection, schedule: Q01DX Z (ip), vehicle: methylcellulose (MC) 100 % of control

CC(C)=CCC/C(C)=C\CC1=C(O)c2ccccc2C(=O)C1=O
inactive: dose: 100.0 mg/kg/injection, schedule: Q01DX001 (ip), vehicle: water 96 % of control | dose: 100.0 mg/kg/injection, schedule: Q04DX003 (ip), vehicle: acetone 102 % of control | dose: 200.0 mg/kg/injection, schedule: Q01DX001 (ip), vehicle: water 100 % of control | dose: 200.0 mg/kg/injection, schedule: Q04DX003 (ip), vehicle: acetone 94 % of control

OC1C2CCN(CC2)C1CN1CC=C(c2ccccc2)CC1 (stereo unspecified)
inactive: [21] 104 % of control | [22] 101 % of control | [11] 98 % of control

CC1=CC(=O)NC1=O
inactive: [21] 103 % of control | [22] 98 % of control | [11] 97 % of control

CCSc1nc(C(OC)OC)c(Cc2ccccc2)c(=O)[nH]1
inactive: [1] 95 % of control | [2] 89 % of control | [3] 100 % of control

CO/C(N)=N\C(=O)NC1CC(OC(=O)c2ccc(C)cc2)C(COC(=O)c2ccc(C)cc2)O1 (stereo unspecified)
inactive: [11] 98 % of control | [13] 104 % of control | [15] 96 % of control

CC1CCN(C(=O)Nc2ccccc2)CC1
inactive: [4] 98 % of control | [5] 117 % of control | [6] 103 % of control

Nc1ccc(N=Nc2ccc(S(=O)(=O)O)cc2)cc1
inactive: dose: 100.0 mg/kg/injection, schedule: Q01DX009 (ip), vehicle: saline with Tween-80 87 % of control | [19] 95 % of control | [20] 97 % of control
